Experimental data: patent publication US20240382629A1, “HETEROBIVALENT AND HOMOBIVALENT AGENTS TARGETING FIBROBLAST ACTIVATION PROTEIN ALPHA AND/OR PROSTATE-SPECIFIC MEMBRANE ANTIGEN” (The Johns Hopkins University, priority 2021, published 2024)
Several values for one entry are separate records, joined by “and”; a condition that tells them apart may be missing. Equal entries are not always repeated.

Test: Biodistribution of [^18F]JHU1221785 with cold FAPI-04 blocker
Format: in vivo, mouse
Conditions: for % ID/g Bladder / % ID/g Blood / % ID/g Brain / % ID/g Fat / % ID/g Heart / % ID/g Kidney / % ID/g Large intestine / % ID/g Lung / % ID/g Muscle / % ID/g Pancreas / % ID/g Salivary gland / % ID/g Small intestine / % ID/g Spleen / % ID/g Stomach / % ID/g Tumor: single mouse
[1] = + Blocker Cold FAPI-04 (10 nmole), 60 min

N#C[C@@H]1CCCN1C(=O)CNC(=O)c1ccnc2ccc(OCCCNC(=O)[C@@H](CC(=O)O)NC(=O)[C@@H](CC(=O)O)NC(=O)c3ccc([18F])nc3)cc12 [[^18F]JHU1221785]
% ID/g Mean Bladder (30 min): 2.81 % ID/g
% ID/g Bladder (30 min): 0.93 % ID/g and 4.69 % ID/g
% ID/g Mean Bladder (60 min): 0.84 % ID/g
% ID/g Bladder (60 min): 0.76 % ID/g and 0.92 % ID/g
% ID/g Mean Bladder [1]: 0.45 % ID/g
% ID/g Bladder [1]: 0.23 % ID/g and 0.67 % ID/g
% ID/g Mean Blood (30 min): 4.94 % ID/g
% ID/g Blood (30 min): 5.98 % ID/g and 3.90 % ID/g
% ID/g Mean Blood (60 min): 3.57 % ID/g
% ID/g Blood (60 min): 2.56 % ID/g and 4.57 % ID/g
% ID/g Mean Blood [1]: 4.68 % ID/g
% ID/g Blood [1]: 0.11 % ID/g and 9.26 % ID/g
% ID/g Mean Brain (30 min): 0.14 % ID/g
% ID/g Brain (30 min): 0.14 % ID/g and 0.15 % ID/g
% ID/g Mean Brain (60 min): 0.10 % ID/g
% ID/g Brain (60 min): 0.09 % ID/g and 0.12 % ID/g
% ID/g Mean Brain [1]: 0.03 % ID/g
% ID/g Brain [1]: 0.02 % ID/g and 0.04 % ID/g
% ID/g Mean Fat (30 min): 0.20 % ID/g
% ID/g Fat (30 min): 0.21 % ID/g and 0.19 % ID/g
% ID/g Mean Fat (60 min): 0.22 % ID/g
% ID/g Fat (60 min): 0.22 % ID/g and 0.21 % ID/g
% ID/g Mean Fat [1]: 0.12 % ID/g
% ID/g Fat [1]: 0.03 % ID/g and 0.21 % ID/g
% ID/g Mean Femur (30 min): 2.61 % ID/g
% ID/g Mean Femur (60 min): 2.07 % ID/g
% ID/g Mean Femur [1]: 1.51 % ID/g
% ID/g Mean Heart (30 min): 2.26 % ID/g
% ID/g Heart (30 min): 2.51 % ID/g and 2.01 % ID/g
% ID/g Mean Heart (60 min): 1.56 % ID/g
% ID/g Heart (60 min): 1.38 % ID/g and 1.73 % ID/g
% ID/g Mean Heart [1]: 0.07 % ID/g
% ID/g Heart [1]: 0.06 % ID/g and 0.07 % ID/g
% ID/g Mean Kidney (30 min): 2.47 % ID/g
% ID/g Kidney (30 min): 1.60 % ID/g and 3.33 % ID/g
% ID/g Mean Kidney (60 min): 0.91 % ID/g
% ID/g Kidney (60 min): 0.79 % ID/g and 1.04 % ID/g
% ID/g Mean Kidney [1]: 0.46 % ID/g
% ID/g Kidney [1]: 0.41 % ID/g and 0.51 % ID/g
% ID/g Mean Large intestine (30 min): 0.72 % ID/g
% ID/g Large intestine (30 min): 0.58 % ID/g and 0.86 % ID/g
% ID/g Mean Large intestine (60 min): 0.69 % ID/g
% ID/g Large intestine (60 min): 0.61 % ID/g and 0.78 % ID/g
% ID/g Mean Large intestine [1]: 0.20 % ID/g
% ID/g Large intestine [1]: 0.08 % ID/g and 0.33 % ID/g
% ID/g Mean Liver (30 min): 7.32 % ID/g
% ID/g Mean Liver (60 min): 7.84 % ID/g
% ID/g Mean Liver [1]: 9.89 % ID/g
% ID/g Mean Lung (30 min): 2.65 % ID/g
% ID/g Lung (30 min): 2.77 % ID/g and 2.53 % ID/g
% ID/g Mean Lung (60 min): 2.18 % ID/g
% ID/g Lung (60 min): 1.70 % ID/g and 2.65 % ID/g
% ID/g Mean Lung [1]: 0.17 % ID/g
% ID/g Lung [1]: 0.13 % ID/g and 0.20 % ID/g
% ID/g Mean Muscle (30 min): 0.96 % ID/g
% ID/g Muscle (30 min): 0.81 % ID/g and 1.12 % ID/g
% ID/g Mean Muscle (60 min): 0.98 % ID/g
% ID/g Muscle (60 min): 1.06 % ID/g and 0.89 % ID/g
% ID/g Mean Muscle [1]: 0.06 % ID/g
% ID/g Muscle [1]: 0.04 % ID/g and 0.07 % ID/g
% ID/g Mean Pancreas (30 min): 2.31 % ID/g
% ID/g Pancreas (30 min): 1.92 % ID/g and 2.71 % ID/g
% ID/g Mean Pancreas (60 min): 2.07 % ID/g
% ID/g Pancreas (60 min): 1.96 % ID/g and 2.17 % ID/g
% ID/g Mean Pancreas [1]: 0.13 % ID/g
% ID/g Pancreas [1]: 0.05 % ID/g and 0.22 % ID/g
% ID/g Mean Salivary gland (30 min): 2.93 % ID/g
% ID/g Salivary gland (30 min): 2.81 % ID/g and 3.05 % ID/g
% ID/g Mean Salivary gland (60 min): 3.45 % ID/g
% ID/g Salivary gland (60 min): 2.17 % ID/g and 4.73 % ID/g
% ID/g Mean Salivary gland [1]: 0.05 % ID/g
% ID/g Salivary gland [1]: 0.04 % ID/g and 0.06 % ID/g
% ID/g Mean Small intestine (30 min): 2.49 % ID/g
% ID/g Small intestine (30 min): 2.60 % ID/g and 2.38 % ID/g
% ID/g Mean Small intestine (60 min): 1.83 % ID/g
% ID/g Small intestine (60 min): 1.65 % ID/g and 2.01 % ID/g
% ID/g Mean Small intestine [1]: 3.54 % ID/g
% ID/g Small intestine [1]: 0.88 % ID/g and 6.19 % ID/g
% ID/g Mean Spleen (30 min): 1.00 % ID/g
% ID/g Spleen (30 min): 1.03 % ID/g and 0.97 % ID/g
% ID/g Mean Spleen (60 min): 0.93 % ID/g
% ID/g Spleen (60 min): 0.78 % ID/g and 1.09 % ID/g
% ID/g Mean Spleen [1]: 0.16 % ID/g
% ID/g Spleen [1]: 0.08 % ID/g and 0.25 % ID/g
% ID/g Mean Stomach (30 min): 0.82 % ID/g
% ID/g Stomach (30 min): 0.72 % ID/g and 0.92 % ID/g
% ID/g Mean Stomach (60 min): 0.71 % ID/g
% ID/g Stomach (60 min): 0.60 % ID/g and 0.81 % ID/g
% ID/g Mean Stomach [1]: 0.16 % ID/g
% ID/g Stomach [1]: 0.09 % ID/g and 0.23 % ID/g
% ID/g Mean Tumor (30 min): 1.24 % ID/g
% ID/g Tumor (30 min): 1.14 % ID/g and 1.34 % ID/g
% ID/g Mean Tumor (60 min): 2.23 % ID/g
% ID/g Tumor (60 min): 2.59 % ID/g and 1.47 % ID/g
% ID/g Mean Tumor [1]: 0.10 % ID/g
% ID/g Tumor [1]: 0.08 % ID/g and 0.11 % ID/g
